# According to patent publication US20050165011A1, “Benzoxazine and benzoxazinone substituted triazoles” (priority 2002, published 2005):
# Test system: not given
# Test: not given
# Settings: not given
row,melting point,SMILES
1,224 °C,Cc1cccc(-c2[nH]nnc2-c2ccc3c(c2)NC(=O)CO3)n1
2,150 °C,Cc1cccc(-c2[nH]nnc2-c2ccc3c(c2)N(CCN2CCOCC2)C(=O)CO3)n1
3,256 °C,O=C1COc2ccc(-c3nn[nH]c3-c3ccccn3)cc2N1
4,220 °C,O=C1COc2ccc(-c3nn[nH]c3-c3cccc(Cl)c3)cc2N1
5,187 °C,CCN1C(=O)COc2ccc(-c3nn[nH]c3-c3cccc(C)n3)cc21

# Test system: TGF-β signaling (PAl-1 promoter luciferase reporter, HepG2 cells)
# Test: Cellular transcriptional assay (PAI-1 promoter luciferase reporter in HepG2 cells exposed to TGF-β)
# Assay type: cell-based
# Settings: 500 μM CPO in the presence of TGF-β; toxicity control
# Description: Assay 1 (Cellular Transcriptional Assay)
# The assay was performed in HepG2 cells stably transfected with the PAl-1 promoter (known to be a strong TGF-β responsive promoter) linked to a luciferase (firefly) reporter gene. The compounds were selected on their ability to inhibit luciferase activity in cells exposed to TGF-β. In addition, cells were transfected with a second luciferase (Renilla) gene which was not driven by a TGF-β responsive promoter and was used as a toxicity control.
# 96 well microplates were seeded, using a multidrop apparatus, with the stably transfected cell line at a concentration of 35000 cells per well in 200 μl of serum-containing medium. These plates were placed in a cell incubator.
# 18 to 24 hours later (Day 2), cell-incubation procedure was launched. […] Each well contained only one candidate compound and its effect on the PAl-1 promoter was monitored.
# Columns 11 and 12 were employed as controls. […] Column 11 was used to determine the ‘reference TGF-β induced firefly luciferase value’ against which values measured in the test wells (to quantify inhibitory activity) were compared. […]
# 12 to 18 hours later (day 3), the luciferase quantification procedure was launched. […] Following agitation (15 to 30 mins), luciferase activities of the plates were read in a dual-injector luminometer (BMG lumistar). […]
row,SMILES,firefly and renilla luciferase activities relative to TGF-β only wells
1,"O=C1C=CCC1 [CPO, Cyclopentenone]",around 50%
